Test results: publication PMC11426312 (Biochemistry, 2024)

How the values were obtained:
[1] = target: T1, AbHMPK (hydroxymethyl pyrimidine kinase / phosphomethylpyrimidine kinase) (Acinetobacter baumannii, UniProt A0A0J9X285); test: HPLC and LC-MS/MS of the enzymatic product; format: biochemical
[2] = target: T1, AbHMPK (hydroxymethyl pyrimidine kinase / phosphomethylpyrimidine kinase); test: X-ray crystal structure; format: biochemical

T1 sequence (A0A0J9X285 whole entry): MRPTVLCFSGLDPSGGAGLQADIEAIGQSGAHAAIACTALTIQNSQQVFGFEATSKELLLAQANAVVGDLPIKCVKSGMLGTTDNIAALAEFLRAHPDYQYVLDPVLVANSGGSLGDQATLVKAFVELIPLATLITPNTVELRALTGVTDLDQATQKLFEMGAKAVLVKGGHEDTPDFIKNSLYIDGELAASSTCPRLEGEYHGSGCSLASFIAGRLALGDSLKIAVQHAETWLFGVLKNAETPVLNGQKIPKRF

Structure (SMILES)	HPLC and LC-MS/MS of the enzymatic product [1]	IC50 [2]
Cc1ncc(COP(=O)(O)O)c(N)n1 [HMP-P]	the mass spectrometry analysis all confirm that this single product is HMP-P	–
Cc1ncc(COP(=O)(O)O)c(C=O)c1O [PLP, 4-Formyl-5-hydroxy-6-methylpyridin-3-yl) methyl dihydrogen phosphate]	–	768 µM
